# Experiment: Drug concentration in plasma of rat after subcutaneous administration of microcapsule
# Format: in vivo
# Conditions: sc, 25 mg microcapsule of Example 1, subcutaneous at rear neck, 9 week old male SD rat, plasma from tail vein, n = 4; for concentration at 1 week: after 1 week; for concentration at 2 weeks: after 2 weeks; for concentration at 3 weeks: after 3 weeks; for concentration at 1 day: after 1 day
# Protocol: 25 mg of the microcapsule obtained in Example 1 was dispersed in 0.1 mL of dispersing medium (a solution in which 5 mg of sodium carboxymethylcellulose, 1 mg of Polysorbate 80 and 50 mg of mannitol were dissolved in 1 mL of distilled water), and this was subcutaneously administered to a 9 week old male SD rat with 23G injection needle at a rear neck part. The concentrations of drugs in plasma obtained by taking from a tail vein with time after administration were measured.
SMILES,concentration at 1 week [ng/mL],concentration at 2 weeks [ng/mL],concentration at 3 weeks [ng/mL],concentration at 1 day [ng/mL]
CCc1ccc(CCOc2ccc(CC3SC(=O)NC3=O)cc2)nc1 (centres unmarked) [actos],226,155,30,313
"CCOc1nc2cccc(C(=O)O)c2n1Cc1ccc(-c2ccccc2-c2nnn[nH]2)cc1 [Compound B, 2-ethoxy-1-[[2′-(1H-tetrazol-5-yl)biphenyl-4-yl]methyl]benzimidazole-7-carboxylic acid]",238,94,4,170
